# Measurements reported in article PMC10054454, “Phenotypic Discovery of Thiocarbohydrazone with Anticancer Properties and Catalytic Inhibition of Human DNA Topoisomerase IIα” (Pharmaceuticals, 2023).
# Tests used:
# [1] = target: T1, human DNA topoisomerase IIα (Homo sapiens, UniProt P11388); assay: topo IIα-mediated kDNA decatenation and supercoiled pBR322 relaxation gel assays; HTS relaxation assay; cleavage assay (not a poison); format: biochemical
# T1 construct: gene TOP2A
# [2] = target: T1, human DNA topoisomerase IIα; assay: topo IIα cleavage assay (linear plasmid accumulation), HTS relaxation and decatenation assays; format: biochemical
# T1 sequence (P11388 whole entry): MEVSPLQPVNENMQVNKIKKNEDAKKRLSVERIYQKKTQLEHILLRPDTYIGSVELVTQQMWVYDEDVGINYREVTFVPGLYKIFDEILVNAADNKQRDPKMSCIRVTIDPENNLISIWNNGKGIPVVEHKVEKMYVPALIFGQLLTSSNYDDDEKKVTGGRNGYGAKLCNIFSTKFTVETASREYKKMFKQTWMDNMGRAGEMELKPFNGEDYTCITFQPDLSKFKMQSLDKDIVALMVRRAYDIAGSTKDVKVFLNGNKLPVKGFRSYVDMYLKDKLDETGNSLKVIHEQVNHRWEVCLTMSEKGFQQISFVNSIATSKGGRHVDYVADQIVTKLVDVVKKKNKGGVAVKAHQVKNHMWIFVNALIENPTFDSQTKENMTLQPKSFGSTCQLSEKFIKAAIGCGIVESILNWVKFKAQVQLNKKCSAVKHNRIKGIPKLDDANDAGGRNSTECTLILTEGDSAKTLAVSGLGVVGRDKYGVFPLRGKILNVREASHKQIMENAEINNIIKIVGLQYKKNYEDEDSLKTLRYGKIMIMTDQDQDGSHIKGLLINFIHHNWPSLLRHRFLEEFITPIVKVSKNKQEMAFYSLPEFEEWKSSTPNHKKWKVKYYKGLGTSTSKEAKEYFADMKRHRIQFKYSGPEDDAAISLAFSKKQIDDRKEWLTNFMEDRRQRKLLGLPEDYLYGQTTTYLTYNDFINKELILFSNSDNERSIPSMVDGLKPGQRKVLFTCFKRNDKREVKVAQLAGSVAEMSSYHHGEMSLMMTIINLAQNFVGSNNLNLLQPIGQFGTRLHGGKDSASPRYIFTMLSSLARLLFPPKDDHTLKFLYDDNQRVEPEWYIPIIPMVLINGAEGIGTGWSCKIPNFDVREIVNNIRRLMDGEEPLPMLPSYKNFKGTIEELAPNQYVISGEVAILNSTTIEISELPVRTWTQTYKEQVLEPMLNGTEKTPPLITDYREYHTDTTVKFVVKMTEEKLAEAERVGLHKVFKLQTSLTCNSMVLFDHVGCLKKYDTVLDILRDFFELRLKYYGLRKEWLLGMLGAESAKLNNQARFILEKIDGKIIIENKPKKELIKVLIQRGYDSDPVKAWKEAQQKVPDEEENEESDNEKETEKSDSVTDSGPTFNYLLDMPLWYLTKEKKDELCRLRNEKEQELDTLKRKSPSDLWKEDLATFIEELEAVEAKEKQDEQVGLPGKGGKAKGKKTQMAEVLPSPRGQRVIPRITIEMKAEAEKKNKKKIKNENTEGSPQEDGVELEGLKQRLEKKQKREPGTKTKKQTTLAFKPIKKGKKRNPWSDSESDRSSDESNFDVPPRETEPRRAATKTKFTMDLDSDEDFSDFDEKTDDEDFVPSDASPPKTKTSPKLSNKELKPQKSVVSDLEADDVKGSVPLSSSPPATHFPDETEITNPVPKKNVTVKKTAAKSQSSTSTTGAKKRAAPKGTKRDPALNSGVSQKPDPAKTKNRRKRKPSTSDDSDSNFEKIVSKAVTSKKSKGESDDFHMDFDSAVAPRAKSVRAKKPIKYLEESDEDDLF
Compound,inhibition at 50 µM [1],inhibition at 50 µM [2]
"Oc1ccccc1C=NNC(=S)NN=Cc1ccccc1O [compound 2, 1,5-bis(salicylidene)thiocarbohydrazide]",56%,
COc1cc([C@@H]2c3cc4c(cc3[C@@H](O[C@@H]3O[C@@H]5CO[C@@H](C)O[C@H]5[C@H](O)[C@H]3O)[C@H]3COC(=O)[C@H]23)OCO4)cc(OC)c1O [etoposide],,70%
